# Data reported in ChEMBL document CHEMBL4651402, “Screening of ~5500 FDA-approved drugs and clinical candidates for anti-SARS-CoV-2 activity” (2021).
# Test system: SARS-CoV-2
# Test: microbe, parasite or virus in culture
# Settings: Severe acute respiratory syndrome coronavirus 2, Vero C1008, 48 h
Structure (SMILES),IC50,IC50 (read-out: pIC50 (converted))
CO[C@@]1(NC(=O)C2SC(=C(C(N)=O)C(=O)O)S2)C(=O)N2C(C(=O)O)=C(CSc3nnnn3C)CS[C@@H]21 (some centres not stated) [CEFOTETAN],> 20 µM,> 20 µM
COc1cc2c(c(OC)c1OC)-c1ccc(O)c(=O)cc1C(N)CC2 (configuration not stated),> 20 µM,> 20 µM
Cc1ccc(-c2nc(CN3CCN(C(c4ccccc4)c4ccccc4)CC3)c(C)[nH]2)cc1 [LIFARIZINE],> 20 µM,> 20 µM
CCCc1cc(C(N)=S)ccn1 [PROTIONAMIDE],> 20 µM,> 20 µM
CNC1(C)C2CCC(C2)C1(C)C (configuration not stated) [MECAMYLAMINE],> 20 µM,> 20 µM
CC(=O)OC[C@@]1(O)C[C@@]23CC[C@@H]4c5ccoc5CC[C@@]4(C)[C@@H]2CC[C@@H]1C3 [CAFESTOL ACETATE],> 20 µM,> 20 µM
CN1C(=O)N(c2cc(Cl)cc(Cl)c2)C(=O)[C@@]1(C)Cc1ccc(Br)cc1,> 20 µM,> 20 µM
Nc1nc(=O)n([C@@H]2O[C@H](CO)[C@@H](O)[C@H]2F)cc1I,> 20 µM,> 20 µM
O=C(Cc1cccc(OC(F)(F)F)c1)Nc1ccc(CCCCc2nnc(NC(=O)Cc3ccccn3)s2)nn1,> 20 µM,> 20 µM
CCCC(=O)OCOC(=O)C(C)(C)C [AN-9],> 20 µM,> 20 µM
Cc1c(F)cc(C(=O)NC2CC2)cc1-c1ccc(C(=O)NCC(C)(C)C)cn1 [LOSMAPIMOD],> 20 µM,> 20 µM
CC(C)c1nc(N(C)S(C)(=O)=O)nc(-c2ccc(F)cc2)c1/C=C/C(O)CC(O)CC(=O)O (configuration not stated),> 20 µM,> 20 µM
C#CCN/C(=N\C#N)NCCSCc1nc[nH]c1C [ETINTIDINE],> 20 µM,> 20 µM
Cc1cn(C2C=CC(CO)O2)c(=O)[nH]c1=O (configuration not stated),> 20 µM,> 20 µM
C[C@@H](O)CCCCn1c(=O)c2c(ncn2C)n(C)c1=O [LISOFYLLINE],> 20 µM,> 20 µM
CCCCCCCCCCCCCC(=O)O[C@@H]1[C@@H](C)[C@@]2(O)[C@@H](C=C(CO)C[C@]3(O)C(=O)C(C)=C[C@@H]23)[C@@H]2C(C)(C)[C@]12OC(C)=O [PHORBOL MYRISTATE ACETATE],> 20 µM,> 20 µM
COc1ccc(-c2nc(N3CCOCC3)c3sc(CN(C)c4ncc(C(=O)NO)cn4)cc3n2)cn1 [FIMEPINOSTAT],> 20 µM,> 20 µM
CCC(NC(C)C)C(O)c1ccc(O)c2[nH]c(=O)ccc12 (configuration not stated) [PROCATEROL],> 20 µM,> 20 µM
COCC(=O)Nc1ccc(/N=C(\C)N(C)C)cc1,> 20 µM,> 20 µM
CNCC(O)c1ccc(O)c(O)c1 (configuration not stated) [RACEPINEPHRINE],> 20 µM,> 20 µM
CO[C@H]1C[C@@H]2CC[C@@H](C)[C@@](O)(O2)C(=O)C(=O)N2CCCC[C@H]2C(=O)O[C@H]([C@H](C)C[C@@H]2CC[C@@H](O)[C@H](OC)C2)CC(=O)[C@H](C)/C=C(\C)[C@@H](O)[C@@H](OC)C(=O)[C@H](C)C[C@H](C)/C=C/C=C/C=C/1C [SIROLIMUS],> 20 µM,> 20 µM
O=c1cccc2n1C[C@@H]1CNC[C@H]2C1 [CYTISINICLINE],> 20 µM,> 20 µM
Cn1cc(C2=C(c3cn(C4CCN(Cc5ccccn5)CC4)c4ccccc34)C(=O)NC2=O)c2ccccc21 [ENZASTAURIN],> 20 µM,> 20 µM
CC(C(=O)O)c1ccc2oc(-c3ccc(F)cc3)nc2c1 (configuration not stated),> 20 µM,> 20 µM
CCCCCCCCCCCCCCCC(=O)O [PALMITIC ACID],> 20 µM,> 20 µM
COC(=O)C1=C(C)NC(C)=C(C(=O)OC)C1c1ccccc1[N+](=O)[O-] [NIFEDIPINE],> 20 µM,> 20 µM

Structure (SMILES),IC50,IC50 (read-out: pIC50 (converted))
O=C1CCCN1CC1CCN(c2ccnc(C(F)(F)F)n2)CC1,> 20 µM,> 20 µM
CC(C)n1nc(-c2cccc(Cl)c2Cl)c(N)nc1=N [PALATRIGINE],> 20 µM,> 20 µM
O=C1C[C@@H]2OCC=C3CN4CC[C@]56c7ccccc7N1[C@H]5[C@H]2[C@H]3C[C@H]46 [STRYCHNINE],> 20 µM,> 20 µM
CC(C)CN(C[C@@H](OP(=O)(O)O)[C@H](Cc1ccccc1)NC(=O)O[C@H]1CCOC1)S(=O)(=O)c1ccc(N)cc1 [FOSAMPRENAVIR],> 20 µM,> 20 µM
C#Cc1cccc(Nc2ncnc3cc(OCCOC)c(OCCOC)cc23)c1 [ERLOTINIB],> 20 µM,> 20 µM
Cc1ncc([N+](=O)[O-])n1CCOC(N)=O [BAMNIDAZOLE],> 20 µM,> 20 µM
O=C(CCCN1CCN(c2ccccn2)CC1)c1ccc(F)cc1 [AZAPERONE],> 20 µM,> 20 µM
Cc1ncc(CO)c(CN)c1O [PYRIDOXAMINE],> 20 µM,> 20 µM
CCCCC[C@H](O)/C=C/[C@H]1[C@H](O)CC(=O)[C@@H]1C/C=C\CCCC(=O)O [DINOPROSTONE],> 20 µM,> 20 µM
Oc1cc(O)c2c(c1)OC(c1ccc(O)c(O)c1)C(O)C2 (configuration not stated) [CATECHIN],> 20 µM,> 20 µM
COc1cc(CC(=O)NCCCc2ccc(C)c(C)c2)ccc1OCCN [DAVASAICIN],> 20 µM,> 20 µM
Nc1ccc(S(=O)(=O)c2ccc(NCC(=O)O)cc2)cc1 [ACEDIASULFONE],> 20 µM,> 20 µM
O=C1Nc2ccccc2C1(c1ccc(O)cc1)c1ccc(O)cc1 [OXYPHENISATINE],> 20 µM,> 20 µM
O=c1c(O)c(-c2ccc(O)cc2O)oc2cc(O)cc(O)c12 [MORIN],> 20 µM,> 20 µM
CC(C)(C)CC(C)(C)c1ccc(O)c(Cc2ccc(Cl)cc2Cl)c1 [CLOFOCTOL],> 20 µM,> 20 µM
O=C1NC(=O)C(Cc2ccc3cc(OCc4ccccc4F)ccc3c2)S1 (configuration not stated) [NETOGLITAZONE],> 20 µM,> 20 µM
CC12CCC(C(C(=O)O)C1=O)C2(C)C (configuration not stated),> 20 µM,> 20 µM
COc1cnc(NS(=O)(=O)c2ccc(N)cc2)nc1,> 20 µM,> 20 µM
COCC(=O)Nc1cc(COc2ccc(NC(=O)Nc3cc(C(C)(C)C)nn3-c3ccc(C)cc3)c3ccccc23)ccn1 [JNJ-49095397],> 20 µM,> 20 µM
CC(C)OC(=O)[C@H](C)N[P@](=O)(OC[C@@]1(F)O[C@@H](n2ccc(=O)[nH]c2=O)[C@](C)(O)[C@@H]1O)Oc1ccccc1 [ADAFOSBUVIR],> 20 µM,> 20 µM
O=c1[nH]cnc2c1ncn2[C@@H]1O[C@H](CO)[C@@H](O)[C@H]1O [INOSINE],> 20 µM,> 20 µM
C#C[C@]1(O)CC[C@H]2[C@@H]3CCC4=C(CCC(=O)C4)[C@H]3CC[C@@]21C [NORETHYNODREL],> 20 µM,> 20 µM
COC1=C(OC)C(=O)C(C/C=C(\C)CC/C=C(\C)CC/C=C(\C)CC/C=C(\C)CC/C=C(\C)CC/C=C(\C)CC/C=C(\C)CC/C=C(\C)CC/C=C(\C)CCC=C(C)C)=C(C)C1=O [UBIDECARENONE],> 20 µM,> 20 µM
Cc1ccccc1-n1c(C)nc2ccccc2c1=O [METHAQUALONE],> 20 µM,> 20 µM
NC(=O)N1c2ccccc2C=Cc2ccccc21 [CARBAMAZEPINE],> 20 µM,> 20 µM
